The source of these data is patent US9056876B2, “Substituted 1H-pyrazolo[3′,4′,4,5]thieno[2,3-b]pyridin-3-amine analogs as positive allosteric modulators of the muscarinic acetylcholine receptor M4” (VANDERBILT UNIVERSITY, priority 2011, dated 2015).

As a reminder, the pEC50 is the negative decadic logarithm of the EC50, by convention in mol/L. In general, EC50 refers to the concentration giving half of the maximal effect.

For the experiment, the target named is T1, mAChR M4 (UniProt P08173).
T1 construct: hM1 and hM4 cDNAs were purchased from Missouri S&T cDNA Resource
T1 sequence (P08173 1-479): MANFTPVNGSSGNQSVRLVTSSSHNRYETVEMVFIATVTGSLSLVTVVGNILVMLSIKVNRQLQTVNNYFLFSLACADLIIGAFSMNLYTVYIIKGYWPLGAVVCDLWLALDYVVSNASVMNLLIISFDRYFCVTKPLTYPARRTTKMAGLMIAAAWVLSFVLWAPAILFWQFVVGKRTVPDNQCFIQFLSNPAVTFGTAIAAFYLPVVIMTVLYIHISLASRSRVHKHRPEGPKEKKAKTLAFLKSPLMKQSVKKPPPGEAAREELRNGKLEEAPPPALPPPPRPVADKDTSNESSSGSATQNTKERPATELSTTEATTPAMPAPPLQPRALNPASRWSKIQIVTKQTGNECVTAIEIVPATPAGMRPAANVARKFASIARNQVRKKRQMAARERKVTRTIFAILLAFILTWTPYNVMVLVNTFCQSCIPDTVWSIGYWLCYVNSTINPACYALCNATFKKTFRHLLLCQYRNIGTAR
In words: mAChR M4 cell-based functional assay (calcium mobilization, Fluo-4, FDSS). The conditions noted are these: for Emax (%)*: % ACh maximum at 30 μM; for pEC50: positive allosteric modulator activity, EC20 acetylcholine response; for pEC50 / EC50: CHO-K1 cells; for EC50: positive allosteric modulator activity: concentration-dependent increase in the EC20 acetylcholine response, >10 μM estimated for low potency (no plateau). The text has this: Chinese hamster ovary (CHO-K1) cells stably expressing rat (r)M1 were purchased from the American Type Culture Collection and cultured according to their indicated protocol. CHO cells stably expressing human (h)M2, hM3, and hM5 were described previously (Levey A I, et al., (1991) J Neurosci 11:3218-3226.); hM1 and hM4 cDNAs were purchased from Missouri S&T cDNA Resource; rM4 cDNA was provided by T. I. Bonner (National Institutes of Health, Bethesda, Md.). rM2 and rM3 were cloned from a rat brain cDNA library and sequence verified. hM1, rM2, rM3, hM4, and rM4 cDNAs were used to stably transfect CHO-K1 cells purchased from the American Type Culture Collection using Lipofectamine-2000. To make stable rM2, hM2, rM3, hM4, and rM4 cell lines for use in calcium mobilization assays, these cells also were stably transfected with a chimeric G-protein (Gqi5) (provided by B. R. Conklin, University of California, San Francisco) using Lipofectamine 2000. rM1, hM1, rM3, hM3, rM5, and hM5 cells were grown in Ham's F-12 medium containing 10% heat-inactivated fetal bovine serum (FBS), 20 mM HEPES, and 50 µg/mL G418 sulfate. rM2-Gqi5, hM2-Gqi5, and hM4-Gqi5 cells were grown in the same medium also containing 500 µg/mL Hygromycin B. Stable rM4-Gqi5 cells were grown in DMEM containing 10% heat-inactivated FBS, 20 mM HEPES, 400 µg/mL G418 sulfate, and 500 µg/mL Hygromycin B.
For high throughput measurement of agonist-evoked increases in intracellular calcium, CHO-K1 cells stably expressing the target muscarinic receptor were plated in growth medium lacking G418 and hygromycin at 15,000 cells/20 μL/well in Greiner 384-well black-walled, tissue culture (TC)-treated, clear-bottom plates (VWR). Cells were incubated overnight at 37° C. and 5% CO2. The next day, cells were washed using an ELX 405 (BioTek) with four washes (80 μL) of assay buffer then aspirated to 20 μL. Next, […] of 16 μM Fluo-4/acetoxymethyl ester (Invitrogen, Carlsbad, Calif.) prepared as a 2.3 mM stock in DMSO and mixed in a 1:1 ratio with 10% (w/v) Pluronic F-127 and diluted in assay buffer was added to the wells and the cell plates were incubated for 50 min at 37° C. and 5% CO2. Dye was removed by washing with the ELX 405 (four 80 μL washes of assay buffer) then aspirated to 20 μL. Compound master plates were formatted in an 11 point CRC format (1:3 dilutions) in 100% DMSO with a starting concentration of 10 mM using the BRAVO liquid handler (Agilent). Test compound CRCs were then transferred to daughter plates (240 nL) using the Echo acoustic plate reformatter (Labcyte, Sunnyvale, Calif.) and then diluted into assay buffer (40 μL) to a 2× stock using a Thermo Fisher Combi (Thermo Fisher Scientific, Waltham, Mass.).
Calcium flux was measured using the Functional Drug Screening System (FDSS) 6000 (Hamamatsu Corporation, Tokyo, Japan) as an increase in the fluorescent static ratio. Compounds were applied to cells (20 μL, 2×) using the automated system of the FDSS 6000 at 4 s into the 300 s protocol and the data were collected at 1 Hz. At 144 s into the 300 s protocol, 10 μL of an EC20 concentration of the muscarinic receptor agonist acetylcholine was added (5×), followed by the addition of 12 μL an EC80 concentration of acetylcholine at the 230 s time point (5×). Agonist activity was analyzed as a concentration-dependent increase in calcium mobilization upon compound addition. Positive allosteric modulator activity was analyzed as a concentration-dependent increase in the EC20 acetylcholine response. Antagonist activity was analyzed as a concentration-dependent decrease in the EC80 acetylcholine response. Concentration-response curves were generated using a four-parameter logistical equation in XLfit curve fitting software (IDBS, Bridgewater, N.J.) for Excel (Microsoft, Redmond, Wash.) or Prism (GraphPad Software, Inc., San Diego, Calif.). […]

Bounds are passed on as bounds.

As for `Cc1cc(C)c2c(n1)sc1c(NCc3ccco3)nn(CCO)c12` [Compound 95, 2-(3-((furan-2-ylmethyl)amino)-6,8-dimethyl-1H-pyrazolo[3′,4′:4,5]thieno[2,3-b]pyridin-1-yl)ethanol], the “Emax (%)*” value was 67%, the pEC50 stood at 6.92 and the EC50 is 120 nM.

As for `Cc1nc2sc3c(NCC4CC4)n[nH]c3c2c(C)c1Cl` [Compound 14, 7-chloro-N-(cyclopropylmethyl)-6,8-dimethyl-1H-pyrazolo[3′,4′:4,5]thieno[2,3-b]pyridin-3-amine], the “Emax (%)*” value amounted to 69%, the pEC50 worked out at 5.80 and the EC50 was 1600 nM.

Take `Cc1csc(CNc2nn(C)c3c2sc2nc(C)cc(C)c23)n1` [Compound 98, 1,6,8-trimethyl-N-((4-methylthiazol-2-yl)methyl)-1H-pyrazolo[3′,4′:4,5]thieno[2,3-b]pyridin-3-amine]: the “Emax (%)*” value was determined as 53%, the pEC50 was 6.28 and the EC50 is 520 nM.

Consider `Cc1cc(C)c2c(n1)sc1c(NCc3cccs3)nn(C)c12` [Compound 34, 1,6,8-trimethyl-N-(thiophen-2-ylmethyl)-1H-pyrazolo[3′,4′:4,5]thieno[2,3-b]pyridin-3-amine], for which the “Emax (%)*” value worked out at 81%, the pEC50 came out at 7.07 and the 50% effective concentration (EC50) was 86 nM.

Turning to `Cc1nc2sc3c(NCc4cccs4)nn(C)c3c2c(C)c1Cl` [Compound 26, 7-chloro-1,6,8-trimethyl-N-(thiophen-2-ylmethyl)-1H-pyrazolo[3′,4′:4,5]thieno[2,3-b]pyridin-3-amine], the “Emax (%)*” value stood at 42%, the pEC50 was below 5.00 and the EC50 is above 10000 nM.

Take `Cc1cc(C)c2c(n1)sc1c(NC3CCC(N)CC3)n[nH]c12` (stereo not shown) [Compound 138, N1-(6,8-dimethyl-1H-pyrazolo[3′,4′:4,5]thieno[2,3-b]pyridin-3-yl)cyclohexane-1,4-diamine]: the negative logarithm of the EC50 (pEC50) is on record as below 5.00 and the EC50 was above 10000 nM.

With `COc1cccc(C(=O)Nc2n[nH]c3c2sc2nc(C)cc(C)c23)c1` [Compound 127, N-(6,8-dimethyl-1H-pyrazolo[3′,4′:4,5]thieno[2,3-b]pyridin-3-yl)-3-methoxybenzamide], the pEC50 is below 5.00 and the EC50 was above 10000 nM.

As to `Cc1cc(C)c2c(n1)sc1c(NC3CCCN(C(=O)OC(C)(C)C)C3)n[nH]c12` (stereo not shown) [Compound 135, tert-butyl 3-((6,8-dimethyl-1H-pyrazolo[3′,4′:4,5]thieno[2,3-b]pyridin-3-yl)amino)piperidine-1-carboxylate], the pEC50 was below 5.00 and the EC50 was above 10000 nM.

For the molecule `Cc1ccc2c(n1)sc1c(NCC3CC3)nn(C)c12` [Compound 51, N-(cyclopropylmethyl)-1,6-dimethyl-1H-pyrazolo[3′,4′:4,5]thieno[2,3-b]pyridin-3-amine], the “Emax (%)*” value worked out at 73%, the pEC50 is recorded as 5.89 and the EC50 is 1300 nM.

For `Cc1cc(C)c2c(n1)sc1c(NCc3ccc4c(c3)OCCO4)nn(C)c12` [Compound 87, N-((2,3-dihydrobenzo[b][1,4]dioxin-6-yl)methyl)-1,6,8-trimethyl-1H-pyrazolo[3′,4′:4,5]thieno[2,3-b]pyridin-3-amine], the “Emax (%)*” value is reported as 66%, the pEC50 is listed as 6.80 and the EC50 is 160 nM.

Turning to `Cc1cc(C)c2c(n1)sc1c(NC3CCCC3)nn(CCO)c12` [Compound 107, 2-(3-(cyclopentylamino)-6,8-dimethyl-1H-pyrazolo[3′,4′:4,5]thieno[2,3-b]pyridin-1-yl)ethanol], the “Emax (%)*” value came to 65%, the pEC50 is listed as 6.70 and the EC50 was 200 nM.

`Cc1ccnc2sc3c(NCC4CC4)nn(C)c3c12` [Compound 160, N-(cyclopropylmethyl)-1,8-dimethyl-1H-pyrazolo[3′,4′:4,5]thieno[2,3-b]pyridin-3-amine]: the pEC50 is reported as below 5.00 and the EC50 was above 10000 nM.

As for `Cc1cc(C)c2c(n1)sc1c(NC3CCSC3)nn(C)c12` (stereo not shown) [Compound 73, 1,6,8-trimethyl-N-(tetrahydrothiophen-3-yl)-1H-pyrazolo[3′,4′:4,5]thieno[2,3-b]pyridin-3-amine], the “Emax (%)*” value was 84%, the pEC50 is 7.06 and the EC50 was 87 nM.

Regarding `Cc1nc2sc3c(NCCC(C)C)nn(C)c3c2c(C)c1Cl` [Compound 24, 7-chloro-N-isopentyl-1,6,8-trimethyl-1H-pyrazolo[3′,4′:4,5]thieno[2,3-b]pyridin-3-amine], the “Emax (%)*” value is listed as 61%, the pEC50 is below 5.00 and the EC50 was above 10000 nM.

Take `Cc1nc2sc3c(NCc4ccco4)nn(C)c3c2c(C)c1Cl` [Compound 25, 7-chloro-N-(furan-2-ylmethyl)-1,6,8-trimethyl-1H-pyrazolo[3′,4′:4,5]thieno[2,3-b]pyridin-3-amine]: the “Emax (%)*” value is on record as 57%, the negative-log EC50 (pEC50) was determined as 6.66 and the EC50 is 220 nM.

Consider `Cc1ccc2c(n1)sc1c(NCc3ccc(Cl)cc3)n[nH]c12` [Compound 49, N-(4-chlorobenzyl)-6-methyl-1H-pyrazolo[3′,4′:4,5]thieno[2,3-b]pyridin-3-amine], for which the “Emax (%)*” value turned out to be 37%, the pEC50 was determined as 5.47 and the EC50 is 3400 nM.

On to `Cc1cc(C)c2c(n1)sc1c(NCc3ccc(F)cc3)n[nH]c12` [Compound 4, N-(4-fluorobenzyl)-6,8-dimethyl-1H-pyrazolo[3′,4′:4,5]thieno[2,3-b]pyridin-3-amine], for which the “Emax (%)*” value is 54%, the pEC50 is 5.99 and the EC50 was 1030 nM.

On to `Cc1cc(C)c2c(n1)sc1c(NC(=O)c3ccccc3)n[nH]c12` [Compound 130, N-(6,8-dimethyl-1H-pyrazolo[3′,4′:4,5]thieno[2,3-b]pyridin-3-yl)benzamide], for which the pEC50 is below 5.00 and the EC50 was above 10000 nM.

`Cc1cc(C)c2c(n1)sc1c(N)n[nH]c12` [Compound 1, 6,8-dimethyl-1H-pyrazolo[3′,4′:4,5]thieno[2,3-b]pyridin-3-amine]: the “Emax (%)*” value is on record as 27%, the pEC50 is recorded as below 5.00 and the EC50 is above 10000 nM.

As to `Cc1cc(C)c2c(n1)sc1c(NCc3cc4ccccc4n3C)nn(C)c12` [Compound 89, 1,6,8-trimethyl-N-((1-methyl-1H-indo1-2-yl)methyl)-1H-pyrazolo[3′,4′:4,5]thieno[2,3-b]pyridin-3-amine], the “Emax (%)*” value came out at 51%, the pEC50 was below 5.00 and the EC50 is above 10000 nM.
